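Interpolation was linear, between the two tested concentrations surrounding the appropriate level; five concentrations were tested over 48 hours in 96-well plates. GI50 marks 50% less growth.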 The source made the active and inactive calls. Rule as the data show it: active = GI50 up to about 1.1 µM and inactive = higher.
What was measured:
Test in all cases: NCI-60 cell line screen, 48 h
SF-295 = test system: SF-295
U-251 = test system: U-251
COLO 205 = test system: COLO 205
DLD-1 = test system: DLD-1
HT-29 = test system: HT-29
SK-MEL-5 = test system: SK-MEL-5
KM12 = test system: KM12
HOP-62 = test system: HOP-62
SW-620 = test system: SW-620
Malme-3M = test system: Malme-3M
HCT-15 = test system: HCT-15
K562 = test system: K562
UACC-62 = test system: UACC-62
A549 = test system: A549
EKVX = test system: EKVX
HOP-92 = test system: HOP-92
MDA-N = test system: MDA-N
NCI/ADR-RES = test system: NCI/ADR-RES
DU-145 = test system: DU-145
PC-3 = test system: PC-3

Structure (SMILES) | GI50 (SF-295) | GI50 (U-251) | GI50 (COLO 205) | GI50 (DLD-1) | GI50 (HT-29) | GI50 (SK-MEL-5) | GI50 (KM12) | GI50 (HOP-62) | GI50 (SW-620) | GI50 (Malme-3M) | GI50 (HCT-15) [µM] | GI50 (K562) | GI50 (UACC-62) | GI50 (A549) | GI50 (EKVX) | GI50 (HOP-92) | GI50 (MDA-N) | GI50 (NCI/ADR-RES) | GI50 (DU-145) | GI50 (PC-3)
CC(C)=CC(=O)Cc1nc2cc(C)c(C)cc2[nH]c1=O | 90.4 µM (inactive) | > 100 µM (inactive) | > 100 µM (inactive) | > 100 µM (inactive) | > 100 µM (inactive) | > 100 µM (inactive) | > 100 µM (inactive) | 17.9 µM (inactive) | > 100 µM (inactive) | > 100 µM (inactive) | > 100 | > 100 µM (inactive) | > 100 µM (inactive) | > 100 µM (inactive) | 9.89 µM (inactive) | 24.9 µM (inactive) | – | – | – | –
OCCCCn1cnc2c(O)ncnc21 | > 100 µM (inactive) | – | > 100 µM (inactive) | > 100 µM (inactive) | > 100 µM (inactive) | > 100 µM (inactive) | > 100 µM (inactive) | > 100 µM (inactive) | > 100 µM (inactive) | > 100 µM (inactive) | > 100 | > 100 µM (inactive) | > 100 µM (inactive) | > 100 µM (inactive) | > 100 µM (inactive) | > 100 µM (inactive) | – | – | – | –
CC(=O)NNc1nc(C)c(C(/C=C/c2ccc(Cl)cc2)=N/NC(=S)NN)s1 | > 100 µM (inactive) | > 100 µM (inactive) | > 100 µM (inactive) | > 100 µM (inactive) | > 100 µM (inactive) | > 100 µM (inactive) | > 100 µM (inactive) | > 100 µM (inactive) | > 100 µM (inactive) | > 100 µM (inactive) | > 100 | > 100 µM (inactive) | > 100 µM (inactive) | > 100 µM (inactive) | > 100 µM (inactive) | > 100 µM (inactive) | – | – | – | –
CN(C)/N=N/c1ccc(C(N)=O)cc1 | > 100 µM (inactive) | > 100 µM (inactive) | > 100 µM (inactive) | > 100 µM (inactive) | > 100 µM (inactive) | > 100 µM (inactive) | > 100 µM (inactive) | > 100 µM (inactive) | > 100 µM (inactive) | > 100 µM (inactive) | > 100 | > 100 µM (inactive) | > 100 µM (inactive) | > 100 µM (inactive) | > 100 µM (inactive) | > 100 µM (inactive) | – | – | – | –
CC1=NN(C(=O)c2ccc(Cl)cc2)C(=O)/C1=C/c1ccc(Cl)cc1 | > 100 µM (inactive) | > 100 µM (inactive) | > 100 µM (inactive) | > 100 µM (inactive) | > 100 µM (inactive) | > 100 µM (inactive) | > 100 µM (inactive) | > 100 µM (inactive) | > 100 µM (inactive) | > 100 µM (inactive) | – | > 100 µM (inactive) | > 100 µM (inactive) | > 100 µM (inactive) | > 100 µM (inactive) | > 100 µM (inactive) | – | – | – | –
CC1=NN(C(=O)c2ccccc2O)C(=O)/C1=C/c1cccc([N+](=O)[O-])c1 | 0.507 µM (active) | 0.512 µM (active) | 29 µM (inactive) | 0.459 µM (active) | 38.7 µM (inactive) | 2.57 µM (inactive) | 0.703 µM (active) | 1.23 µM (inactive) | 3.44 µM (inactive) | 21.1 µM (inactive) | 4.05 | 0.364 µM (active) | 0.408 µM (active) | 0.448 µM (active) | 3.99 µM (inactive) | 1.27 µM (inactive) | 0.608 µM (active) | 6.81 µM (inactive) | 1.55 µM (inactive) | 7.06 µM (inactive)
COc1ccc(/C=N\O[Si](C)(C)C(C)(C)C)cc1O[Si](C)(C)C(C)(C)C | 17.2 µM (inactive) | 19.7 µM (inactive) | 22.5 µM (inactive) | 17.9 µM (inactive) | 17.7 µM (inactive) | 17.3 µM (inactive) | 17.6 µM (inactive) | 20.2 µM (inactive) | 18.7 µM (inactive) | 17.6 µM (inactive) | 18.2 | 18.3 µM (inactive) | 18.8 µM (inactive) | 18 µM (inactive) | 21 µM (inactive) | 22.6 µM (inactive) | – | – | – | –
CCN(CC)CCNC(=O)c1cccc2nc3ccccc3nc12 | 11 µM (inactive) | 16.9 µM (inactive) | 3.78 µM (inactive) | > 26.7 µM (inactive) | 4.55 µM (inactive) | > 46 µM (inactive) | 10.3 µM (inactive) | 13.2 µM (inactive) | 5.48 µM (inactive) | 11.4 µM (inactive) | 6.53 | 1.38 µM (inactive) | 18.9 µM (inactive) | 8.05 µM (inactive) | 23.4 µM (inactive) | 38.4 µM (inactive) | – | – | – | –
C=C(C)[C@@H]1CC=C(CO)CC1 [PERILLYL ALCOHOL] | 266 µM (inactive) | 125 µM (inactive) | 199 µM (inactive) | 220 µM (inactive) | 136 µM (inactive) | 110 µM (inactive) | 316 µM (inactive) | 184 µM (inactive) | 637 µM (inactive) | 324 µM (inactive) | 167 | 30.5 µM (inactive) | 236 µM (inactive) | 126 µM (inactive) | 617 µM (inactive) | 117 µM (inactive) | > 10 µM (inactive) | > 10 µM (inactive) | > 10 µM (inactive) | > 10 µM (inactive)
O=c1c2cccc3cccc(c4n1CCCN=4)c32 | > 100 µM (inactive) | > 100 µM (inactive) | > 100 µM (inactive) | > 100 µM (inactive) | > 100 µM (inactive) | > 100 µM (inactive) | > 100 µM (inactive) | > 100 µM (inactive) | 92.5 µM (inactive) | > 100 µM (inactive) | > 100 | > 100 µM (inactive) | > 100 µM (inactive) | > 100 µM (inactive) | > 100 µM (inactive) | > 100 µM (inactive) | – | – | – | –
COc1cc(C(=O)Nc2cccc3ccccc23)c(Br)c(OC)c1OC | > 100 µM (inactive) | > 100 µM (inactive) | > 100 µM (inactive) | > 100 µM (inactive) | > 100 µM (inactive) | 41.1 µM (inactive) | 70.3 µM (inactive) | > 100 µM (inactive) | > 100 µM (inactive) | 67.6 µM (inactive) | > 100 | 43.5 µM (inactive) | 45.2 µM (inactive) | 66.2 µM (inactive) | > 100 µM (inactive) | 42.2 µM (inactive) | – | – | – | –
CN(C)CC1CCC(CN(C)C)C(=O)C1=O (configuration not stated) | 16.6 µM (inactive) | 12.7 µM (inactive) | 1.79 µM (inactive) | 3.05 µM (inactive) | 7.64 µM (inactive) | 16.3 µM (inactive) | 14.2 µM (inactive) | 20.1 µM (inactive) | 1.83 µM (inactive) | 1.92 µM (inactive) | 3 | 2.27 µM (inactive) | 16.1 µM (inactive) | 10.9 µM (inactive) | 17.3 µM (inactive) | 1.99 µM (inactive) | > 10 µM (inactive) | – | 16.5 µM (inactive) | 16.7 µM (inactive)
CCOC(=O)C(/C(=N/NC(=O)OC)C(=O)Nc1ccc(C(C)=O)cc1)c1cnc2ccccc2n1 (configuration not stated) | > 100 µM (inactive) | > 100 µM (inactive) | > 100 µM (inactive) | > 100 µM (inactive) | > 100 µM (inactive) | > 100 µM (inactive) | > 100 µM (inactive) | > 100 µM (inactive) | > 100 µM (inactive) | > 100 µM (inactive) | > 100 | > 100 µM (inactive) | > 100 µM (inactive) | > 100 µM (inactive) | > 100 µM (inactive) | > 100 µM (inactive) | – | – | – | –

Reference: ChEMBL document CHEMBL1201862, “PubChem BioAssay data set” (2004)
